Laboratory results published in PubChem BioAssay (NCI).
Several values for one entry are separate records, joined by “and”; a condition that tells them apart may be missing. Equal values may be shown once.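 Five concentrations, 48 hours, 96-well plates. GI50 = concentration required for 50% inhibition of growth. TGI marks complete inhibition of growth.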

How the values were obtained:
Assay in all cases: NCI tumour cell line growth inhibition, 48 h
[1] = tested on: DU-145 prostate
[2] = tested on: PC-3 prostate
[3] = tested on: HS 578T breast
[4] = tested on: DLD-1 colon
[5] = tested on: KM20L2 colon
[6] = tested on: XF 498 CNS
[7] = tested on: RXF-631 renal
[8] = tested on: DMS 114 small cell lung
[9] = tested on: MDA-N

Compound	GI50 [1]	TGI [1]	GI50 [2]	TGI [2]	GI50 [3]	TGI [3]	TGI [4]	TGI [5]	TGI [6]	TGI [8]	other results
Cc1ccc2nc(NC(=O)CSC(=S)N3CCN(Cc4ccccc4)CC3)sc2c1	> 100 µM	> 100 µM	> 100 µM	> 100 µM	> 100 µM	> 100 µM	–	–	–	–	–
CC[O+]=c1cccc2ssnc1-2	–	–	–	–	–	–	> 100 µM	> 100 µM	66.9 µM	–	TGI [7]: > 100 µM
O=C(O/N=C1/CCC/C1=C\c1ccccc1)c1ccc(Cl)cc1	–	–	–	–	–	–	> 31.6 µM	> 100 µM	> 100 µM	–	–
O=C(O)c1cc2c3c(c1)[C@H]1C=CC[C@H]1CN3CC1CC=CC21 (stereo partly drawn)	–	–	–	–	–	–	> 100 µM	> 100 µM	> 100 µM	> 100 µM	–
CC(=O)OC1C(O)COC(Oc2c(C)c3c4c(c2O)[C@@H](C)CC[C@@H]4[C@@H](C)C[C@H]3C=C(C)C)C1O (stereo partly drawn)	12.8 µM	29 µM	11.3 µM	26.3 µM	16.8 µM	37.2 µM	–	–	–	–	–
CC(=O)[CH-]C(=O)c1ccccc1.CC(=O)[CH-]C(=O)c1ccccc1.[O-]c1ccc(O)cc1.[O-]c1ccc(O)cc1.[Ti+4]	–	–	–	–	–	–	37.6 µM	66.9 µM	–	–	GI50 [4]: 16.6 µM; GI50 [5]: 24.5 µM
CC(C)c1cccc2sc(NC(=O)C(=O)CC(=O)c3ccc(F)cc3)nc12	–	–	–	–	–	–	> 100 µM	> 100 µM	> 100 µM	> 100 µM	TGI [7]: > 100 µM
O=C1c2ccccc2C(=O)c2c1c(NCCNCCO)c1cc[nH]c1c2NCCNCCO	3.31 µM	> 59 µM	3.22 µM	> 25.6 µM	1.93 µM	11.1 µM	–	–	–	–	–
CCN(CCc1ccc(F)cc1)c1ccc(CO)c(Cl)c1	14.4 µM	29.2 µM	10.9 µM	24.8 µM	11.5 µM	32.4 µM	–	–	–	–	–
COC(=O)/C1=C/C2CC(/C=C(/c3ccccc3)C(=O)O1)C2	–	–	–	–	–	–	> 100 µM	–	45.2 µM	55.8 µM	–
NC(N)=NS(=O)(=O)c1ccc(NC(=O)c2ccc(Cl)c3c(Nc4ccc(S(=O)(=O)N=C(N)N)cc4)c4ccccc4nc23)cc1	–	–	–	–	–	–	> 100 µM	> 100 µM	–	> 100 µM	TGI [7]: > 100 µM
COc1ccc(-n2nc(C)c3c(Nc4ccc(NC(=O)Nc5cc(C(F)(F)F)ccc5F)cc4)ncnc32)cc1	3.65 µM	> 100 µM	2.13 µM	6.85 µM	2.33 µM	7.11 µM	–	–	–	–	–
CC(=O)OC1CC(C)c2c1ncnc2N1CCN(C(=O)OC(C)(C)C)CC1 (stereo not drawn)	31.9 µM	86.9 µM	38.7 µM	> 100 µM	83.5 µM	> 100 µM	–	–	–	–	–
CP(=O)(CCSc1ccccc1)c1ccccc1 (stereo not drawn)	–	–	–	–	–	–	> 100 µM	> 100 µM	> 100 µM	> 100 µM	–
N#CC(C(=N/NC(N)=S)/C(=N\NC(N)=S)C(C#N)c1ccccc1)c1ccccc1 (stereo not drawn)	–	–	–	–	–	–	> 10 µM	> 10 µM	> 10 µM	> 10 µM	TGI [7]: > 10 µM
[O-]c1c(-c2ccccc2)[se]c(-c2ccccc2)[n+]1-c1ccccc1	–	–	–	–	–	–	4.48 µM	–	–	18.7 µM	TGI [7]: 29.9 µM
CCOc1ccc2c(-c3ccnc(Nc4cccc(C(F)(F)F)c4)n3)cnn2n1	> 19.5 µM	> 25 µM	> 16.1 µM	> 25 µM	> 20.2 µM	> 25 µM	–	–	–	–	–
CC1=C(CC/C(C)=C/CCC2(C)CCC([C@H](C)C(=O)O)OO2)C(C)(C)CCC1 (stereo partly drawn) (tested in a mixture with another compound)	–	–	–	–	–	–	> 100 µM	> 100 µM	–	> 100 µM	–
CCCCCn1ncc(-c2c(O)c(O)cc3c(O)c(-c4c(C)cc5c(-c6cnn(CCCCC)n6)c(O)c(O)cc5c4O)c(C)cc23)n1	0.0647 µM	6.02 µM	0.147 µM	2.53 µM	0.152 µM	8.87 µM	–	–	–	–	–
C=CC1(C)/C(=N\O)C(C)(CC)C(=O)N1O (stereo not drawn)	–	–	–	–	–	–	> 100 µM	–	> 100 µM	> 100 µM	TGI [7]: > 100 µM
CCC1(c2ccncc2)CCC(=O)NC1=O (stereo not drawn)	–	–	–	–	–	–	> 100 µM	> 100 µM	> 100 µM	> 100 µM	TGI [7]: > 100 µM
O=C(/C=C/c1ccccc1)c1ccc(O)c(CN2CCN(c3cc4c(cc3F)c(=O)c(C(=O)O)cn4C3CC3)CC2)c1	1.53 µM	> 100 µM	0.897 µM	> 100 µM	0.577 µM	> 100 µM	–	–	–	–	–
CN(C)c1ccc2c(SCC(=O)OCC(=O)[C@@]3(O)CC[C@H]4[C@@H]5CCC6=CC(=O)C=C[C@]6(C)[C@H]5C(=O)C[C@@]43C)c3ccc(N(C)C)cc3nc2c1	–	58.2 µM	–	> 100 µM	–	> 100 µM	–	–	–	–	TGI [9]: > 100 µM
CC(=O)C1C(=O)C(=O)N(c2ccc(Cl)cc2C)C1=O (stereo not drawn)	–	–	–	–	–	–	> 100 µM	> 100 µM	–	> 100 µM	TGI [7]: > 100 µM
COc1ccc2c3c([nH]c2c1[N+](=O)[O-])C(C)N(C(=O)/C=C/c1ccccc1)CC3 (stereo not drawn)	–	–	–	–	–	–	–	> 100 µM	–	–	–
COc1ccc(-c2ccc(=O)oc2-c2cc(OC)c(OC)c(OC)c2)cc1O	0.0297 µM	–	0.0183 µM	> 100 µM	0.0275 µM	> 100 µM	–	–	–	–	–
COc1cc2c(cc1OCCN1C(=O)c3cccc4cccc(c34)C1=O)N=C[C@@H]1CCCN1C2=O	18.1 µM	17.4 µM and 35.9 µM	15 µM	13.6 µM and 28.2 µM	15.2 µM	19.9 µM and 35.8 µM	–	–	–	–	GI50 [9]: 20.3 µM; TGI [9]: 14.8 µM and 45.8 µM
Cc1cc2cc(Oc3ccnc(Nc4cccc(CS(=O)(=O)NCCN(C)C)c4)n3)ccc2[nH]1	9.86 µM	21.6 µM	3.38 µM	13.2 µM	3.17 µM	29.5 µM	–	–	–	–	–
